Source: patent US20250051319A1 (AUGUSTINE THERAPEUTICS, priority 2021, published 2025)

Target: catalytic domain 2 (CD2) of HDAC6 (Homo sapiens (Human), UniProt Q9UBN7)
Experiment: Cellular target engagement assay - NanoBRET
Assay type: cell-based
Conditions: NanoLuc-HDAC6(CD2) in HEK293T cells, 2 hours, read-out: IC50 (HDAC6(CD2) interaction)
Experimental: NanoBRET target engagement was performed against the catalytic domain 2 (CD2) of HDAC6, with minor modifications of kit manufacturer protocol (Promega). Expression of exogenous NanoLuc-HDAC6(CD2) fusion and in HEK293T was achieved following transient transfection with FuGENE HD Transfection Reagent (Promega). The intracellular target engagement assay on HDAC6(CD2) was performed in a 384-well plate format with 8,000 cells per well and a tracer concentration of 0.125 μM or 0.600 μM for HDAC6(CD2). Compounds (dissolved in 100% DMSO) or DMSO (vehicle) were added either manually by diluting them in culture medium at 8× final assay concentration and then adding 5 μL to assay plate or in an automated way by adding […] compound to 5 μL OptiMEM without phenol red (Gibco) using the Echo650 (Labcyte). Tracer solution was added to the cells before seeding 35 μL cell/tracer mixture in the assay plate. The final reaction volume was 40 μL, final DMSO concentration was 1.4% (manual compound addition) or 1.25% (automated compound addition). Assay plates were incubated at 37° C. in a humidified atmosphere containing 5% C02 for 2 hours. The NanoBRET Nano-glo Substrate/Inhibitor was prepared by diluting NanoBRET Nano-Glo Substrate (1:332) and Extracellular Inhibitor (1:1000) in assay medium (Promega). […] BRET ratios were calculated from acceptor/donor signal ratio (mBRET=acceptor/donor*1000) and normalized for each plate. Percentage inhibition was calculated by setting the mBRET obtained with cells without tracer to 100%, while the mBRET obtained with uninhibited cells with tracer was set to 0%. IC50-values were calculated from the percentage inhibition with the log(inhibitor) vs. response—Variable slope (four parameters) nonlinear regression in GraphPad Prism software.

catalytic domain 2 (CD2) of HDAC6, sequence (Q9UBN7 482-800): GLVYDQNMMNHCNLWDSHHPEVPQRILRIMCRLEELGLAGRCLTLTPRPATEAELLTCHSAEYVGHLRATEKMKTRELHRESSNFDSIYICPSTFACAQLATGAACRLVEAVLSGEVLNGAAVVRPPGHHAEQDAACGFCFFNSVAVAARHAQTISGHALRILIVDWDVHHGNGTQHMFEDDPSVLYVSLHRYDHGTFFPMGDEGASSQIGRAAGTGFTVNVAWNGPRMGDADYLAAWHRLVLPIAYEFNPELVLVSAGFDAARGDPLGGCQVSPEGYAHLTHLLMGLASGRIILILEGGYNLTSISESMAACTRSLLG

**Q.** `COc1ccc2nc(C)nc(SCC(=O)c3ccc(CNC(=O)[C@H](C)O)s3)c2c1` [Compound 185, (S)-2-hydroxy-N-((5-(2-((6-methoxy-2-methylquinazolin-4-yl)thio)acetyl)thiophen-2-yl)methyl)propanamide] was tested. Which IC50 did it give?
**A.** ≤ 100 nM

**Q.** `COc1ccc2nc(C)nc(SCC(=O)c3ccc(CNC(=O)[C@@H](C)O)s3)c2c1` [Compound 186, (R)-2-hydroxy-N-((5-(2-((6-methoxy-2-methylquinazolin-4-yl)thio)acetyl)thiophen-2-yl)methyl)propanamide] was tested. Which IC50 did it give?
**A.** 100 to 500 nM

**Q.** For `O=C(CO)NCc1ccc(C(=O)CSc2nc3c(C(F)(F)F)cccc3o2)s1` [Compound 196, 2-hydroxy-N-((5-(2-((4-(trifluoromethyl)benzo[d]oxazol-2-yl)thio)acetyl)thiophen-2-yl)methyl)acetamide], which IC50 is on record?
**A.** 1000 to 10000 nM

**Q.** How did the IC50 turn out when `CCc1nc(SCC(=O)c2ccc(CNC(=O)C(C)(C)C)s2)c2ccccc2n1` [Example 13, N-((5-(2-((2-ethylquinazolin-4-yl)thio)acetyl)thiophen-2-yl)methyl)pivalamide] was run?
**A.** 100 to 500 nM

**Q.** For `CC(C)(C)C(=O)NCc1ccc(C(=O)CSc2nc(C3CCC3)nc3ccccc23)s1` [Example 14, N-((5-(2-((2-cyclobutylquinazolin-4-yl)thio)acetyl)thiophen-2-yl)methyl)pivalamide], which IC50 is on record?
**A.** 100 to 500 nM

**Q.** Which IC50 does the source give for `COc1ccc2nc(C)nc(SCC(=O)c3ccc(CNC(=O)C(C)(C)C)s3)c2c1` [Example 17, N-((5-(2-((6-methoxy-2-methylquinazolin-4-yl)thio)acetyl)thiophen-2-yl)methyl)pivalamide] here?
**A.** 100 to 500 nM

**Q.** How did the IC50 turn out when `Cc1nc(SCC(=O)c2ccc(CNC(=O)C(C)(C)C)s2)c2ncccc2n1` [Example 18, N-((5-(2-((2-methylpyrido[3,2-d]pyrimidin-4-yl)thio)acetyl)thiophen-2-yl)methyl)pivalamide] was run?
**A.** 100 to 500 nM

**Q.** For `Cn1cc2c(SCC(=O)c3ccc(CNC(=O)C(C)(C)C)s3)nc(C(F)(F)F)nc2n1` [Example 22, N-((5-(2-((2-methyl-6-(trifluoromethyl)-2H-pyrazolo[3,4-d]pyrimidin-4-yl)thio)acetyl)thiophen-2-yl)methyl)pivalamide], which IC50 is on record?
**A.** ≤ 100 nM

**Q.** Which IC50 does the source give for `Cn1ncc2c(SCC(=O)c3ncc(CNC(=O)C(C)(C)C)s3)ncnc21` [Example 27, N-((2-(2-((1-methyl-1H-pyrazolo[3,4-d]pyrimidin-4-yl)thio)acetyl)thiazol-5-yl)methyl)pivalamide] here?
**A.** 100 to 500 nM

**Q.** Which IC50 does the source give for `COc1ccc2nc(C)nc(SCC(=O)c3ccc(CNC(=O)C4CC4(F)F)s3)c2c1` (stereo not shown) [Example 39, 2,2-difluoro-N-((5-(2-((6-methoxy-2-methylquinazolin-4-yl)thio)acetyl)thiophen-2-yl)methyl)cyclopropane-1-carboxamide] here?
**A.** 500 to 1000 nM

**Q.** Which IC50 does the source give for `COc1ccc2nc(C)nc(SCC(=O)c3ccc(CNC(=O)C(F)(F)C(F)(F)F)s3)c2c1` [Example 40, 2,2,3,3,3-pentafluoro-N-((5-(2-((6-methoxy-2-methylquinazolin-4-yl)thio)acetyl)thiophen-2-yl)methyl)propanamide] here?
**A.** 1000 to 10000 nM

**Q.** With `Cn1cc2c(SCC(=O)c3ccc(CNC(=O)C4CC4)s3)nc(C(F)(F)F)nc2n1` [Example 41, N-((5-(2-((2-methyl-6-(trifluoromethyl)-2H-pyrazolo[3,4-d]pyrimidin-4-yl)thio)acetyl)thiophen-2-yl)methyl)cyclopropanecarboxamide] as the compound, how does the IC50 read?
**A.** ≤ 100 nM

**Q.** For `COc1ccc2nc(C)nc(SCC(=O)c3ccc(CNC(=O)C4CC4)s3)c2c1` [Example 51, N-((5-(2-((6-methoxy-2-methylquinazolin-4-yl)thio)acetyl)thiophen-2-yl)methyl)cyclopropanecarboxamide], which IC50 is on record?
**A.** 100 to 500 nM

**Q.** `O=C(CO)NCc1ccc(C(=O)CSc2nc(C(F)(F)F)nc3ccc(N4CCOCC4)cc23)s1` [Example 63] was tested. Which IC50 did it give?
**A.** 100 to 500 nM

**Q.** How did the IC50 turn out when `CC(=O)NCCc1ccc(C(=O)CSc2nc(C3CC3)nc3ccccc23)s1` [Example 101, N-(2-(5-(2-((2-cyclopropylquinazolin-4-yl)thio)acetyl)thiophen-2-yl)ethyl)acetamide] was run?
**A.** 100 to 500 nM

**Q.** How did the IC50 turn out when `CC(=O)NCc1ccc(C(=O)CSc2ncnc3c2cnn3C)s1` [Example 103, N-((5-(2-((1-methyl-1H-pyrazolo[3,4-d]pyrimidin-4-yl)thio)acetyl)thiophen-2-yl)methyl)acetamide] was run?
**A.** 500 to 1000 nM

**Q.** For `COc1ccc2nc(C)nc(SCC(=O)c3ccc(CCN4CCC(O)C4=O)s3)c2c1` (stereo not shown) [Example 115, 3-hydroxy-1-(2-(5-(2-((6-methoxy-2-methylquinazolin-4-yl)thio)acetyl)thiophen-2-yl)ethyl)pyrrolidin-2-one], which IC50 is on record?
**A.** 500 to 1000 nM

**Q.** With `COc1ccc2nc(C)nc(SCC(=O)c3ccc([C@H](C)NC(=O)CO)s3)c2c1` [Example 128, (S)-2-hydroxy-N-(1-(5-(2-((6-methoxy-2-methylquinazolin-4-yl)thio)acetyl)thiophen-2-yl)ethyl)acetamide] as the compound, how does the IC50 read?
**A.** 100 to 500 nM

**Q.** How did the IC50 turn out when `C[C@H](NC(=O)CO)c1ccc(C(=O)CSc2nc(C(F)(F)F)nc3c2cnn3C)s1` [Example 130, (S)-2-hydroxy-N-(1-(5-(2-((1-methyl-6-(trifluoromethyl)-1H-pyrazolo[3,4-d]pyrimidin-4-yl)thio)acetyl)thiophen-2-yl)ethyl)acetamide] was run?
**A.** 100 to 500 nM

**Q.** `COc1ccc2nc(C)nc(SCC(=O)c3ccc(CN4CCOCC4=O)s3)c2c1` [Example 137, 4-((5-(2-((6-methoxy-2-methylquinazolin-4-yl)thio)acetyl)thiophen-2-yl)methyl)morpholin-3-one] was tested. Which IC50 did it give?
**A.** 100 to 500 nM

**Q.** Which IC50 does the source give for `COc1ccc2nc(C)nc(SCC(=O)c3ccc(CN4CCC(O)C4=O)s3)c2c1` (stereo not shown) [Example 141, 3-hydroxy-1-((5-(2-((6-methoxy-2-methylquinazolin-4-yl)thio)acetyl)thiophen-2-yl)methyl)pyrrolidin-2-one] here?
**A.** 100 to 500 nM

**Q.** For `O=C(CSc1nc(C(F)(F)F)nc2ncccc12)c1ccc(CN2CCCC2=O)s1` [Example 157, 1-((5-(2-((2-(trifluoromethyl)pyrido[2,3-d]pyrimidin-4-yl)thio)acetyl)thiophen-2-yl)methyl)pyrrolidin-2-one], which IC50 is on record?
**A.** ≤ 100 nM

**Q.** For `COc1cnc2nc(C)nc(SCC(=O)c3ccc(CN4CCOCC4=O)s3)c2c1` [Example 161, 4-((5-(2-((6-methoxy-2-methylpyrido[2,3-d]pyrimidin-4-yl)thio)acetyl)thiophen-2-yl)methyl)morpholin-3-one], which IC50 is on record?
**A.** 100 to 500 nM

**Q.** `O=C(CO)NCc1ccc(C(=O)CSc2nccc3cccnc23)s1` [Example 165, N-((5-(2-((1,7-naphthyridin-8-yl)thio)acetyl)thiophen-2-yl)methyl)-2-hydroxyacetamide] was tested. Which IC50 did it give?
**A.** 100 to 500 nM

**Q.** How did the IC50 turn out when `O=C(CO)NCc1ccc(C(=O)CSc2nc3cc(Cl)cnc3[nH]2)s1` [Example 166, N-((5-(2-((6-chloro-3H-imidazo[4,5-b]pyridin-2-yl)thio)acetyl)thiophen-2-yl)methyl)-2-hydroxyacetamide] was run?
**A.** 1000 to 10000 nM

**Q.** Which IC50 does the source give for `COc1ccc2oc(SCC(=O)c3ccc(CNC(=O)CO)s3)nc2c1` [Example 167, 2-hydroxy-N-((5-(2-((5-methoxybenzo[d]oxazol-2-yl)thio)acetyl)thiophen-2-yl)methyl)acetamide] here?
**A.** 1000 to 10000 nM

**Q.** `COc1cccc2oc(SCC(=O)c3ccc(CNC(=O)CO)s3)nc12` [Example 168, 2-hydroxy-N-((5-(2-((4-methoxybenzo[d]oxazol-2-yl)thio)acetyl)thiophen-2-yl)methyl)acetamide] was tested. Which IC50 did it give?
**A.** 1000 to 10000 nM

**Q.** How did the IC50 turn out when `Cn1c(SCC(=O)c2ccc(CNC(=O)CO)s2)nc2ccccc21` [Example 169, 2-hydroxy-N-((5-(2-((1-methyl-1H-benzo[d]imidazol-2-yl)thio)acetyl)thiophen-2-yl)methyl)acetamide] was run?
**A.** 1000 to 10000 nM

**Q.** How did the IC50 turn out when `Cc1ccc2oc(SCC(=O)c3ccc(CNC(=O)CO)s3)nc2c1` [Example 170, 2-hydroxy-N-((5-(2-((5-methylbenzo[d]oxazol-2-yl)thio)acetyl)thiophen-2-yl)methyl)acetamide] was run?
**A.** 1000 to 10000 nM

**Q.** With `COc1ccc2nc(SCC(=O)c3ccc(CNC(=O)CO)s3)[nH]c2n1` [Example 173, 2-hydroxy-N-((5-(2-((5-methoxy-3H-imidazo[4,5-b]pyridin-2-yl)thio)acetyl)thiophen-2-yl)methyl)acetamide] as the compound, how does the IC50 read?
**A.** 1000 to 10000 nM

**Q.** `O=C(CO)NCc1ccc(C(=O)CSc2nc3cc(Cl)ccc3o2)s1` [Example 174, N-((5-(2-((5-chlorobenzo[d]oxazol-2-yl)thio)acetyl)thiophen-2-yl)methyl)-2-hydroxyacetamide] was tested. Which IC50 did it give?
**A.** 1000 to 10000 nM

**Q.** Which IC50 does the source give for `O=C(CO)NCc1ccc(C(=O)CSc2nccn3ccnc23)s1` [Example 176, 2-hydroxy-N-((5-(2-(imidazo[1,2-a]pyrazin-8-ylthio)acetyl)thiophen-2-yl)methyl)acetamide] here?
**A.** 1000 to 10000 nM

**Q.** How did the IC50 turn out when `O=C(CO)NCc1ccc(C(=O)CSc2nccc3ncccc23)s1` [Example 179, N-((5-(2-((1,6-naphthyridin-5-yl)thio)acetyl)thiophen-2-yl)methyl)-2-hydroxyacetamide] was run?
**A.** 100 to 500 nM

**Q.** For `O=C(CO)NCc1ccc(C(=O)CSc2nccc3ccncc23)s1` [Example 180, N-((5-(2-((2,7-naphthyridin-1-yl)thio)acetyl)thiophen-2-yl)methyl)-2-hydroxyacetamide], which IC50 is on record?
**A.** 100 to 500 nM
